Read-outs that look alike come from different tables or passages of the source.
Experiments:
liver = settings: cited from earlier work
[1] = classification of the substance (M+/M−); cited from earlier work
rodent = settings: cited from earlier work
[2] = test system: mRNA expressed from the genes (A) to (D) in rat liver; test: Behavior of genes (mRNA expression level, oligo-DNA microarray) in rat liver after 28-day oral administration; type: in vivo
How it was run: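 Male F344 SPF rats, 5 weeks old, four per group, dosed by oral gavage once daily for 28 days with test chemical or matched-volume solvent. Liver total RNA profiled on oligo-DNA microarray. Change ≥1.5-fold or ≤1/1.5 versus vehicle counted as significant if its direction matched that seen with other carcinogens.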

[3] = gene group (A), Unigene No. Rn.167075, mRNA vs vehicle control group
[4] = gene group (C), Unigene No. Rn.120914, mRNA vs vehicle control group

For `Cc1c(C)c2c(c(C)c1O)CC[C@@](C)(CCC[C@H](C)CCC[C@H](C)CCCC(C)C)O2` [TS062, α-Tocopherol (Vitamin E)], the Liver carcinogenicity (liver; in vivo) is listed as “Cr−”, the “Mutagenicity by Ames test” value [1] is listed as “M−” and the Carcinogenicity (rodent; in vivo) is listed as “C−”. The “Behavior of gene caused by administration of chemical substance, Gene No. 154” value ([2]; rat, in vivo) was “−”, the “Behavior of gene caused by administration of chemical substance, Gene No. 533” value ([2]; rat, in vivo) was “−” and the “Behavior of gene caused by administration of chemical substance, Gene No. 725” value ([2]; rat, in vivo) was “−”. For the same compound, the “Behavior of gene caused by administration of chemical substance, Gene No. 813” value ([2]; rat, in vivo) was “−”, the “Behavior of gene caused by administration of chemical substance, Gene No. 893” value ([2]; rat, in vivo) was “−” and the “Behavior of gene caused by administration of chemical substance, Gene No. 1119” value ([2]; rat, in vivo) was “−”. The “Behavior of gene caused by administration of chemical substance, Gene No. 1131” value ([2]; rat, in vivo) was “−”, the “Behavior of gene caused by administration of chemical substance, Gene No. 1163” value ([2]; rat, in vivo) was “+” and the “Behavior of gene caused by administration of chemical substance, Gene No. 1334” value ([2]; rat, in vivo) was “−”. For the same compound, the “Behavior of gene caused by administration of chemical substance, Gene No. 1494” value ([2]; rat, in vivo) was “−”, the “Behavior of gene caused by administration of chemical substance, Gene No. 1562” value ([2]; rat, in vivo) was “−” and the “Behavior of gene caused by administration of chemical substance, Gene No. 1741” value ([2]; rat, in vivo) was “−”. The “Behavior of gene caused by administration of chemical substance, Gene No. 1993” value ([2]; rat, in vivo) was “−”, the “Behavior of gene caused by administration of chemical substance, Gene No. 2026” value ([2]; rat, in vivo) was “−” and the “Behavior of gene caused by administration of chemical substance, Gene No. 2045” value ([2]; rat, in vivo) was “−”. The “Behavior of gene caused by administration of chemical substance, Gene No. 2203” value ([2]; rat, in vivo) was “−”, the “Behavior of gene caused by administration of chemical substance, Gene No. 2494” value ([2]; rat, in vivo) was “−” and the “Behavior of gene caused by administration of chemical substance, Gene No. 2546” value ([2]; rat, in vivo) was “−”. For the same compound, the “Behavior of gene caused by administration of chemical substance, Gene No. 3776” value ([2]; rat, in vivo) was “−”, the “Behavior of gene caused by administration of chemical substance, Gene No. 3929” value ([2]; rat, in vivo) was “−” and the “Behavior of gene caused by administration of chemical substance, Gene No. 4095” value ([2]; rat, in vivo) was “−”. The “Behavior of gene caused by administration of chemical substance, Gene No. 4218” value ([2]; rat, in vivo) was “−”, the “Behavior of gene caused by administration of chemical substance, Gene No. 4846” value ([2]; rat, in vivo) was “−” and the “Behavior of gene caused by administration of chemical substance, Gene No. 4973” value ([2]; rat, in vivo) was “−”. The “Behavior of gene caused by administration of chemical substance, Gene No. 5600” value ([2]; rat, in vivo) was “−”, the “Behavior of gene caused by administration of chemical substance, Gene No. 5634” value ([2]; rat, in vivo) was “−” and the “Behavior of gene caused by administration of chemical substance, Gene No. 5726” value ([2]; rat, in vivo) was “−”. For the same compound, the “Behavior of gene caused by administration of chemical substance, Gene No. 5878” value ([2]; rat, in vivo) was “−”, the “Behavior of gene caused by administration of chemical substance, Gene No. 6026” value ([2]; rat, in vivo) was “−” and the “Behavior of gene caused by administration of chemical substance, Gene No. 6182” value ([2]; rat, in vivo) was “−”. The “Behavior of gene caused by administration of chemical substance, Gene No. 6303” value ([2]; rat, in vivo) was “−”, the “Behavior of gene caused by administration of chemical substance, Gene No. 6620” value ([2]; rat, in vivo) was “−” and the “Behavior of gene caused by administration of chemical substance, Gene No. 6742” value ([2]; rat, in vivo) was “+”.
For `ClC(Cl)=C(Cl)Cl` [TS066, Tetrachloroethylene], the Liver carcinogenicity (liver; classification of the substance (Cr+/Cr−)) is given as “Cr−”, the “Mutagenicity by Ames test” value [1] is given as “M−” and the Carcinogenicity (rodent; classification of the substance (C+/C−)) is given as “C+”. For the same compound, the “Behavior of gene caused by administration of chemical substance, Gene No. 4846” value ([2]; gene group (A), Unigene No. Rn.144554, mRNA vs vehicle control group) was “−”, the “Behavior of gene caused by administration of chemical substance, Gene No. 2026” value [2, 3] was “−” and the “Behavior of gene caused by administration of chemical substance, Gene No. 4218” value [2, 3] was “−”. For the same compound, the “Behavior of gene caused by administration of chemical substance, Gene No. 6182” value ([2]; gene group (A), Unigene No. Rn.5834, mRNA vs vehicle control group) was “+”, the “Behavior of gene caused by administration of chemical substance, Gene No. 5600” value ([2]; gene group (A), Unigene No. Rn.9836, mRNA vs vehicle control group) was “−” and the “Behavior of gene caused by administration of chemical substance, Gene No. 1494” value ([2]; gene group (B), Unigene No. Rn.1430, mRNA vs vehicle control group) was “−”. For the same compound, the “Behavior of gene caused by administration of chemical substance, Gene No. 2045” value ([2]; gene group (B), Unigene No. Rn.19329, mRNA vs vehicle control group) was “+”, the “Behavior of gene caused by administration of chemical substance, Gene No. 2203” value ([2]; gene group (B), Unigene No. Rn.21240, mRNA vs vehicle control group) was “−” and the “Behavior of gene caused by administration of chemical substance, Gene No. 533” value ([2]; gene group (C), Unigene No. Rn.106184, mRNA vs vehicle control group) was “+”. The “Behavior of gene caused by administration of chemical substance, Gene No. 725” value ([2]; gene group (C), Unigene No. Rn.108075, mRNA vs vehicle control group) was “−”, the “Behavior of gene caused by administration of chemical substance, Gene No. 1163” value ([2]; gene group (C), Unigene No. Rn.11766, mRNA vs vehicle control group) was “−” and the “Behavior of gene caused by administration of chemical substance, Gene No. 4973” value ([2]; gene group (C), Unigene No. Rn.118529, mRNA vs vehicle control group) was “−”. For the same compound, the “Behavior of gene caused by administration of chemical substance, Gene No. 4095” value ([2]; gene group (C), Unigene No. Rn.119024, mRNA vs vehicle control group) was “−”, the “Behavior of gene caused by administration of chemical substance, Gene No. 1334” value [2, 4] was “−” and the “Behavior of gene caused by administration of chemical substance, Gene No. 6620” value [2, 4] was “−”. For the same compound, the “Behavior of gene caused by administration of chemical substance, Gene No. 6303” value ([2]; gene group (C), Unigene No. Rn.123063, mRNA vs vehicle control group) was “−”, the “Behavior of gene caused by administration of chemical substance, Gene No. 5878” value ([2]; gene group (C), Unigene No. Rn.143213, mRNA vs vehicle control group) was “−” and the “Behavior of gene caused by administration of chemical substance, Gene No. 1131” value ([2]; gene group (C), Unigene No. Rn.144946, mRNA vs vehicle control group) was “−”. For the same compound, the “Behavior of gene caused by administration of chemical substance, Gene No. 1562” value ([2]; gene group (C), Unigene No. Rn.14744, mRNA vs vehicle control group) was “−”, the “Behavior of gene caused by administration of chemical substance, Gene No. 1741” value ([2]; gene group (C), Unigene No. Rn.1647, mRNA vs vehicle control group) was “−” and the “Behavior of gene caused by administration of chemical substance, Gene No. 893” value ([2]; gene group (C), Unigene No. Rn.164817, mRNA vs vehicle control group) was “−”. The “Behavior of gene caused by administration of chemical substance, Gene No. 6026” value ([2]; gene group (C), Unigene No. Rn.167685, mRNA vs vehicle control group) was “−”, the “Behavior of gene caused by administration of chemical substance, Gene No. 154” value ([2]; gene group (C), Unigene No. Rn.185941, mRNA vs vehicle control group) was “−” and the “Behavior of gene caused by administration of chemical substance, Gene No. 1993” value ([2]; gene group (C), Unigene No. Rn.18728, mRNA vs vehicle control group) was “−”. The “Behavior of gene caused by administration of chemical substance, Gene No. 813” value ([2]; gene group (C), Unigene No. Rn.201760, mRNA vs vehicle control group) was “−”, the “Behavior of gene caused by administration of chemical substance, Gene No. 2494” value ([2]; gene group (C), Unigene No. Rn.23969, mRNA vs vehicle control group) was “−” and the “Behavior of gene caused by administration of chemical substance, Gene No. 2546” value ([2]; gene group (C), Unigene No. Rn.24561, mRNA vs vehicle control group) was “−”. The “Behavior of gene caused by administration of chemical substance, Gene No. 3776” value ([2]; gene group (C), Unigene No. Rn.43232, mRNA vs vehicle control group) was “−”, the “Behavior of gene caused by administration of chemical substance, Gene No. 3929” value ([2]; gene group (C), Unigene No. Rn.4620, mRNA vs vehicle control group) was “−” and the “Behavior of gene caused by administration of chemical substance, Gene No. 1119” value ([2]; gene group (C), Unigene No. Rn.9757, mRNA vs vehicle control group) was “−”. The “Behavior of gene caused by administration of chemical substance, Gene No. 6742” value ([2]; gene group (C), Unigene No. Rn.9779, mRNA vs vehicle control group) was “−”, the “Behavior of gene caused by administration of chemical substance, Gene No. 5634” value ([2]; gene group (C), Unigene No. Rn.9862, mRNA vs vehicle control group) was “−” and the “Behavior of gene caused by administration of chemical substance, Gene No. 5726” value ([2]; gene group (D), Unigene No. Rn.9939, mRNA vs vehicle control group) was “−”.

Source: patent US20110039721A1, “METHOD FOR PREDICTION ABOUT CARCINOGENICITY OF SUBSTANCE IN RODENT” (Chemicals Evaluation and Research Institute, priority 2007, published 2011)
